Bridge positions count the residues as written; N and C are the ends. Square brackets hold non-standard residues; d marks the D form. Peptide text beside a SMILES is read from it. Pro(4R-NH2) = N[C@H]1CN[C@H](C(=O)O)C1; Gly(N-2-aminoethyl) = NCCNCC(=O)O; Cha = N[C@@H](CC1CCCCC1)C(=O)O; Gly(N(CH2)3NH2) = NCCCNCC(=O)O; Pen = CC(C)(S)[C@H](N)C(=O)O; dDab = NCC[C@@H](N)C(=O)O; Dab = NCC[C@H](N)C(=O)O
Tests used:
[1] = test system: Escherichia coli MCR-1 Af 45; details: MCR-1 Af 45
Summary of the method: (§1)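 Activity is measured against peptides serially diluted two-fold in water with 0.002% final Polysorbate 80. The cells are in cation-adjusted MHII broth at roughly 5×10^5 CFU/mL, prepared from a 0.5 McFarland suspension in 0.85% NaCl.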

[2] = test system: Escherichia coli ATCC 25922; details: ATCC 25922
Summary of the method: as §1

[3] = test system: Klebsiella pneumoniae SSI3010; details: SSI3010
Summary of the method: as §1

[4] = test system: human red blood cells (hRBC); test: Hemolysis of human red blood cells; format: cell-based; details: red cells of human, 1 h
Summary of the method: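 PBS-washed human red blood cells (20% v/v) were incubated with peptide at 200 μg/mL for 1 h at 37 °C with shaking. Supernatant OD was read at 540 nm after 8-fold dilution. Hemolysis is expressed as percent of the water control.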

Structure (SMILES) | Escherichia coli MCR-1 Af 45 MIC [1] | Escherichia coli ATCC 25922 MIC [2] | Klebsiella pneumoniae SSI3010 MIC [3] | Hemolysis at 0.2 g/L [4]
CC[C@H](C)[C@H](NC(=O)CN(CCN)C(=O)[C@@H](NC(=O)CNCCN)C(C)C)C(=O)N[C@H](C(=O)N[C@@H](Cc1ccc(O)cc1)C(=O)N[C@@H]1C(=O)N[C@@H](CC(N)=O)C(=O)N[C@@H](CCCNC(=N)N)C(=O)N[C@@H](CCN)C(=O)N[C@@H]([C@@H](C)O)C(=O)N[C@H](CCN)C(=O)N[C@@H](CCCCN)C(=O)N[C@H](C(=O)N[C@@H](CCN)C(=O)N[C@@H](CCCNC(=N)N)C(=O)N[C@@H](CC2CCCCC2)C(=O)O)CSSC1(C)C)[C@@H](C)CC [Example 21, Ndab-Val-Ndab-Ile-Ile-Tyr-Pen-Asn-Arg-Dab-Thr-^DDab-Lys-Cys-Dab-Arg-Cha] (H-[Gly(N-2-aminoethyl)]V[Gly(N-2-aminoethyl)]IIY[Pen]NR[Dab]T[dDab]KC[Dab]R[Cha]-OH; disulfide 7-14) | ≤0.03125 µg/mL | 0.0625 µg/mL | 0.25 µg/mL | 0%
CC[C@H](C)[C@H](NC(=O)CN(CCCN)C(=O)[C@@H](NC(=O)CNCCCN)C(C)C)C(=O)N[C@H](C(=O)N[C@@H](Cc1ccc(O)cc1)C(=O)N[C@@H]1C(=O)N[C@@H](CC(N)=O)C(=O)N[C@@H](CCCNC(=N)N)C(=O)N[C@@H](CCN)C(=O)N[C@@H]([C@@H](C)O)C(=O)N[C@H](CCN)C(=O)N[C@@H](CCCCN)C(=O)N[C@H](C(=O)N[C@@H](CCN)C(=O)N[C@@H](CCCNC(=N)N)C(=O)N[C@@H](CC2CCCCC2)C(=O)O)CSSC1(C)C)[C@@H](C)CC [Example 22, Norn-Val-Norn-Ile-Ile-Tyr-Pen-Asn-Arg-Dab-Thr-^DDab-Lys-Cys-Dab-Arg-Cha] (H-[Gly(N(CH2)3NH2)]V[Gly(N(CH2)3NH2)]IIY[Pen]NR[Dab]T[dDab]KC[Dab]R[Cha]-OH; disulfide 7-14) | ≤0.03125 µg/mL | 0.0625 µg/mL | 0.0625 µg/mL | 0%
CC[C@H](C)[C@H](NC(=O)[C@@H](NC(=O)[C@@H]1C[C@@H](N)CN1C(=O)[C@@H](NC(=O)[C@@H]1C[C@@H](N)CN1)C(C)C)[C@@H](C)CC)C(=O)N[C@@H](Cc1ccc(O)cc1)C(=O)N[C@@H]1C(=O)N[C@@H](CC(N)=O)C(=O)N[C@@H](CCCNC(=N)N)C(=O)N[C@@H](CCN)C(=O)N[C@@H]([C@@H](C)O)C(=O)N[C@H](CCN)C(=O)N[C@@H](CCCCN)C(=O)N[C@H](C(=O)N[C@@H](CCC(N)=O)C(=O)N[C@@H](CCCNC(=N)N)C(=O)N[C@@H](Cc2ccc(O)cc2)C(=O)O)CSSC1(C)C [Example 23, Pro((4R)NH2)-Val-Pro((4R)NH2)-Ile-Ile-Tyr-Pen-Asn-Arg-Dab-Thr-^DDab-Lys-Cys-Gln-Arg-Tyr] (H-[Pro(4R-NH2)]V[Pro(4R-NH2)]IIY[Pen]NR[Dab]T[dDab]KCQRY-OH; disulfide 7-14) | 0.25 µg/mL | 0.25 µg/mL | 0.25 µg/mL | 0%
CC[C@H](C)[C@H](NC(=O)[C@@H](NC(=O)[C@@H]1CCCN1C(=O)[C@@H](NC(=O)[C@@H]1C[C@@H](N)CN1)C(C)C)[C@@H](C)CC)C(=O)N[C@@H](Cc1ccc(O)cc1)C(=O)N[C@@H]1C(=O)N[C@@H](CC(N)=O)C(=O)N[C@@H](CCCNC(=N)N)C(=O)N[C@@H](CCN)C(=O)N[C@@H]([C@@H](C)O)C(=O)N[C@H](CCN)C(=O)N[C@@H](CCCCN)C(=O)N[C@H](C(=O)N[C@@H](CCN)C(=O)N[C@@H](CCCNC(=N)N)C(=O)N[C@@H](Cc2ccc(O)cc2)C(=O)O)CSSC1(C)C [Example 24, Pro(4R)NH2)-Val-Pro-Ile-Ile-Tyr-Pen-Asn-Arg-Dab-Thr-^DDab-Lys-Cys-Dab-Arg-Tyr] (HELM PEPTIDE1{[N[C@H]1CN[C@H](C(=O)[*:2])C1].V.P.I.I.Y.[Pen].N.R.[Dab].T.[NCC[C@@H](N[*:1])C(=O)[*:2]].K.C.[Dab].R.Y}$PEPTIDE1,PEPTIDE1,7:R3-14:R3$$$V2.0) | 0.125 µg/mL | 0.125 µg/mL | 0.25 µg/mL | 0%
CC[C@H](C)[C@H](NC(=O)[C@@H](NC(=O)[C@@H]1C[C@@H](N)CN1C(=O)[C@@H](NC(=O)[C@@H]1CCCN1)C(C)C)[C@@H](C)CC)C(=O)N[C@@H](Cc1ccc(O)cc1)C(=O)N[C@@H]1C(=O)N[C@@H](CC(N)=O)C(=O)N[C@@H](CCCNC(=N)N)C(=O)N[C@@H](CCN)C(=O)N[C@@H]([C@@H](C)O)C(=O)N[C@H](CCN)C(=O)N[C@@H](CCCCN)C(=O)N[C@H](C(=O)N[C@@H](CCN)C(=O)N[C@@H](CCCNC(=N)N)C(=O)N[C@@H](Cc2ccc(O)cc2)C(=O)O)CSSC1(C)C [Example 25, Pro-Val-Pro((4R)NH2)-Ile-Ile-Tyr-Pen-Asn-Arg-Dab-Thr-^DDab-Lys-Cys-Dab-Arg-Tyr] (HELM PEPTIDE1{P.V.[N[C@@H]1C[C@@H](C(=O)[*:2])N([*:1])C1].I.I.Y.[Pen].N.R.[Dab].T.[NCC[C@@H](N[*:1])C(=O)[*:2]].K.C.[Dab].R.Y}$PEPTIDE1,PEPTIDE1,7:R3-14:R3$$$V2.0) | ≤0.03125 µg/mL | ≤0.03125 µg/mL | 0.0625 µg/mL | 0%
CC[C@H](C)[C@H](NC(=O)[C@@H](NC(=O)[C@@H]1C[C@@H](N)CN1C(=O)[C@@H](NC(=O)[C@@H]1C[C@@H](N)CN1)C(C)C)[C@@H](C)CC)C(=O)N[C@@H](Cc1ccc(O)cc1)C(=O)N[C@@H]1C(=O)N[C@@H](CC(N)=O)C(=O)N[C@@H](CCCNC(=N)N)C(=O)N[C@@H](CCN)C(=O)N[C@@H]([C@@H](C)O)C(=O)N[C@H](CCN)C(=O)N[C@@H](CCCCN)C(=O)N[C@H](C(=O)N[C@@H](CCN)C(=O)N[C@@H](CCCNC(=N)N)C(=O)N[C@@H](Cc2ccc(O)cc2)C(=O)O)CSSC1(C)C [Example 26, Pro((4R)NH2)-Val-Pro((4R)NH2)-Ile-Ile-Tyr-Pen-Asn-Arg-Dab-Thr-^DDab-Lys-Cys-Dab-Arg-Tyr] (H-[Pro(4R-NH2)]V[Pro(4R-NH2)]IIY[Pen]NR[Dab]T[dDab]KC[Dab]RY-OH; disulfide 7-14) | 0.125 µg/mL | 0.25 µg/mL | 0.25 µg/mL | 0%

Source: patent publication US20230295234A1, “ANTIMICROBIAL PEPTIDOMIMETICS” (SPEXIS AG, priority 2020, published 2023)
